Data: paper PMC4669789, “Selective inhibition of HDAC8 decreases neuroblastoma growth in vitro and in vivo and enhances retinoic acid-mediated differentiation” (Cell Death & Disease, 2015)

Key:
[1] = tested on: neuroblastoma cell culture; experiment: Intracellular whole lysine acetylation via FACS; type: cell-based, human
Experimental: Cells were collected, washed with PBS and fixed with 2% paraformaldehyde for 15 min at room temperature (RT). Cells were permeabilized by incubation with 50 μg/ml digitonin for 6 min at RT. Cells were incubated with primary antibody overnight at 4 °C. After staining with Cy3-conjugated anti-rabbit antibody, cells were analyzed by FACS using CellQuest software (BD Biosciences, San Jose, CA, USA). The following primary antibodies were used: anti-acetylated lysine (polyclonal; Cell Signaling) and anti-neurofilament-M (clone EP2460; Epitomics, Burlingame, CA, USA).

nude mice = experiment: Tolerability during xenograft and long-term treatment (body weight, clinical signs); conditions: mouse, in vivo
Excerpt: Next, we determined the in vivo efficacy of HDAC8-selective inhibition in neuroblastoma xenograft mouse models. […] One week after tumor cell injection, mice established a palpable tumor mass and the animals were then randomly assigned to treatment and control cohorts.

PBMCs = experiment: Whole lysine acetylation in PBMC after intraperitoneal administration (FACS); type: in vivo, mouse; conditions: 150 mg/kg/d; solvent 32.1
Experimental: Both inhibitors were intraperitoneally injected into NMRI Foxn1 nude mice in increasing doses from 40 up to 400 mg/kg per day for 2 × 5 days. Each dose was tested in a cohort of three animals. Resulting MTDs were validated within cohorts of eight animals for each inhibitor. […] As a reference, the blood of 12 untreated NMRI Foxn1 nude mice was analyzed. […] Vorinostat was used as a control for unselective HDAC inhibition.
Whole blood (100 μl) was collected from the femoral vein of untreated athymic NMRI nude mice (HsdCpb:NMRI-Foxn1^nu; Harlan Laboratories Inc.), and respective animals were killed 2 h after intraperitoneal injection of substances. For the analysis of whole acetylation levels, mice were killed at half-life time of the inhibitors. Whole blood with heparin was added to RBC lysis buffer (diluted 1 : 10) (BioLegend, San Diego, CA, USA) at a ratio of 1 : 4. Next, red blood cell lysis was performed according to the manufacturer's instructions. PBMCs were lysed in SDS lysis buffer for western blot or processed for FACS analysis.

NMRI Foxn1 nude mice = conditions: mouse, in vivo; cited from earlier work
BE(2)-C cells [2] = experiment: Western blot of histone 4, α-tubulin and SMC3 acetylation; type: cell-based, human; conditions: working concentrations: 40 μM Cpd2, 4 μM PCI-34051 and PCI-48000
Experimental: Western blot analysis was performed as described previously.[15] For detection of phosphoproteins, PhosStop (Roche, Penzberg, Germany) was added to the lysis buffer.

BE(2)-C cells [3] = experiment: Longer-term colony assay; type: cell-based, human; conditions: ATRA 10 μM, 18 days, empty vector control cells
Experimental: In six-well plates, 500 cells were seeded and treated as indicated. Viable colonies were stained after a minimum of 10 days with crystal violet. For quantification, the mean intensity of each well of the 8-bit binary picture was measured with ImageJ software (U. S. National Institutes of Health, Bethesda, MD, USA; http://imagej.nih.gov/ij/).

CC(/C=C/C(=O)NO)=C\[C@@H](C)C(=O)c1ccc(N(C)C)cc1 [TSA, trichostatin A]
whole acetyl-lysine mean fluorescent values (Blank-corrected) ([1]; 75nM, solvent 34.4, second experiment): 92.7
whole acetyl-lysine mean fluorescent values (Blank-corrected) ([1]; 150nM, solvent 24.7, IMR-32 cells, 24 h per Figure 1c): 115.1
global lysine acetylation ([1]; pan-HDAC inhibitor control, compared with HDAC8 inhibitors): much stronger induction of global lysine acetylation

O=C(CCCCCCC(=O)Nc1ccccc1)NO [vorinostat, suberoylanilide hydroxamic acid]
tolerability at the applied dose (nude mice): clear signs of toxicity, such as diarrhea and weight loss
whole acetyl-lysine mean fluorescent values (Blank-corrected), PBMCs (PBMCs): 54.0
MTD (NMRI Foxn1 nude mice): 150 mg/kg per day

COc1ccc(Cn2ccc3ccc(C(=O)NO)cc32)cc1 [PCI-34051]
SMC3 acetylation (HDAC8 substrate) (BE(2)-C cells [2]): increase in acetylation level
histone 4 acetylation (HDAC1-3 substrate) (BE(2)-C cells [2]): absence of HDAC1-3 substrate acetylation
tubulin acetylation (HDAC6 substrate) (BE(2)-C cells [2]): absence of HDAC6 substrate acetylation

CC1=C(/C=C/C(C)=C/C=C/C(C)=C/C(=O)O)C(C)(C)CCC1 [ATRA, all-trans retinoic acid]
colony formation (BE(2)-C cells [3]): efficiently reduced the ability of empty vector control cells to form colonies
